From patent publication US20240199542A1, “SUBSTITUTED PYRROLIDIN-2-ONES, SALTS THEREOF AND THEIR USE AS HERBICIDALLY ACTIVE SUBSTANCES” (Bayer Aktiengesellschaft, priority 2021, published 2024)

Assays:
Assay type in all cases: in vivo
[1] = test system: Echinochloa crus-galli (ECHCG); experiment: Herbicidal pre-emergence action; conditions: 1280 g/ha, graded after ca. 3 weeks
From the text: (§1) Seeds of mono- and dicotyledonous weed plants and crop plants were sown, in plastic or organic planting pots, in sandy loam and covered with soil. The compounds according to the invention, formulated in the form of wettable powders (WP) or as emulsifiable concentrates (EC), were applied to the surface of the covering soil as aqueous suspension or emulsion, with the addition of 0.5% of an additive, at an application rate of 600 1 of water/ha (converted).
(§2) Following treatment, the pots were placed in a greenhouse and kept under optimum growth conditions for the test plants. The visual grading of the damage to the test plants was carried out after ca. 3 weeks in comparison to untreated controls (herbicidal effect in percent (%): 100% effect=plants have died off, 0% effect=as control plants).
(§3) Tables A1 to A16, below, show the effects of selected compounds of the general formula (I) according to table 1 on various harmful plants and an application rate corresponding to 1280 g/ha or lower obtained by the experimental procedure mentioned above.

Viola tricolor (VIOTR) = experiment: Herbicidal pre-emergence action; conditions: graded after ca. 3 weeks
From the text: as §1, §2, §3

Lolium rigidum (LOLRI) = experiment: Herbicidal pre-emergence action; conditions: 320 g/ha, graded after ca. 3 weeks
From the text: as §1, §2, §3

Avena fatua (AVEFA) [2] = experiment: Herbicidal pre-emergence action; conditions: graded after ca. 3 weeks
From the text: as §1, §2, §3

[3] = test system: Alopecurus myosuroides (ALOMY); experiment: Herbicidal pre-emergence action; conditions: graded after ca. 3 weeks
From the text: as §1, §2, §3

[4] = test system: Polygonum convolvulus (POLCO); experiment: Herbicidal pre-emergence action; conditions: graded after ca. 3 weeks
From the text: as §1, §2, §3

Setaria viridis (SETVI) [5] = experiment: Herbicidal pre-emergence action; conditions: 1280 g/ha, graded after ca. 3 weeks
From the text: as §1, §2, §3

[6] = test system: Lolium multiflorum (LOLMU); experiment: Herbicidal pre-emergence action; conditions: 1280 g/ha, graded after ca. 3 weeks
From the text: as §1, §2, §3

[7] = test system: Digitaria sanguinalis (DIGSA); experiment: Herbicidal pre-emergence action; conditions: 320 g/ha, graded after ca. 3 weeks
From the text: as §1, §2, §3

[8] = test system: Echinochloa crus-galli (ECHCG); experiment: Herbicidal post-emergence action; conditions: assessed after ca. 3 weeks
From the text: (§4) Seeds of mono- and dicotyledonous weed plants and crop plants were sown, in plastic or organic planting pots, in sandy loam, covered with soil and grown in a greenhouse under controlled growth conditions. 2 to 3 weeks after sowing, the test plants were sprayed in the single-leaf stage. The compounds according to the invention, formulated in form of wettable powders (WP) or as emulsifiable concentrates (EC), were sprayed onto the green plant parts as aqueous suspension or emulsion, with the addition of 0.5% of an additive, at an application rate of 600 1 of water/ha (converted). The test plants were placed in the greenhouse for ca. 3 weeks under optimum growth conditions, and then the effect of the preparations was assessed visually in comparison with untreated controls (herbicidal effect in percent (%): 100% effect=plants have died off, 0% effect=as control plants).
(§5) Tables B1 to B16 below show the effects of selected compounds of the general formula (I) according to table 1 on various harmful plants and an application rate corresponding to 1280 g/ha or 320 g/ha obtained by the experimental procedure mentioned above.

Avena fatua (AVEFA) [9] = experiment: Herbicidal post-emergence action; conditions: assessed after ca. 3 weeks
From the text: as §4, §5

[10] = test system: Alopecurus myosuroides (ALOMY); experiment: Herbicidal post-emergence action; conditions: assessed after ca. 3 weeks
From the text: as §4, §5

[11] = test system: Polygonum convolvulus (POLCO); experiment: Herbicidal post-emergence action; conditions: assessed after ca. 3 weeks
From the text: as §4, §5

Setaria viridis (SETVI) [12] = experiment: Herbicidal post-emergence action; conditions: 1280 g/ha, assessed after ca. 3 weeks
From the text: as §4, §5

[13] = test system: Lolium multiflorum (LOLMU); experiment: Herbicidal post-emergence action; conditions: assessed after ca. 3 weeks
From the text: as §4, §5

Brassica napus (BRSNW) = experiment: Post-emergence effects on crop plants; conditions: application rate 320 g/ha, crop plant Brassica napus (BRSNW)
From the text: as §4
Tables D1 to D3 below show the effects of selected compounds of the general formula (I) according to table 1 on various crop plants and an application rate corresponding to 320 g/ha or below obtained by the experimental procedure mentioned above in biology section B.

[14] = test system: Digitaria sanguinalis (DIGSA); experiment: Herbicidal post-emergence action; conditions: 320 g/ha, assessed after ca. 3 weeks
From the text: as §4, §5

Veronica persica (VERPE) = experiment: Herbicidal pre-emergence action; conditions: graded after ca. 3 weeks
From the text: as §1, §2, §3

[15] = test system: Cyperus esculentus (CYPES); experiment: Herbicidal pre-emergence action; conditions: 1280 g/ha, graded after ca. 3 weeks
From the text: as §1, §2, §3

Row | Compound | Pre-emergence activity against ECHCG [1] | Pre-emergence activity against AVEFA (Avena fatua (AVEFA) [2]; 1280 g/ha) | Pre-emergence activity against ALOMY ([3]; 1280 g/ha) | Pre-emergence activity against POLCO ([4]; 1280 g/ha) | Pre-emergence activity against SETVI (Setaria viridis (SETVI) [5]) | Pre-emergence activity against LOLMU [6] | Post-emergence activity against ECHCG ([8]; 1280 g/ha) | Post-emergence activity against AVEFA (Avena fatua (AVEFA) [9]; 1280 g/ha) | Post-emergence activity against ALOMY ([10]; 1280 g/ha) | Post-emergence activity against POLCO ([11]; 1280 g/ha) | Post-emergence activity against SETVI (Setaria viridis (SETVI) [12]) | Post-emergence activity against LOLMU ([13]; 1280 g/ha) | further results
1 | O=C(O)CC1CCC(=O)N1Cc1cccc(F)c1F (stereo not drawn) [Example I-003, 2-[1-[(2,3-difluorophenyl)methyl]-5-oxo-pyrrolidin-2-yl]acetic acid] | 80% | 90% | 90% | 90% | 80% | 90% | 90% | 90% | 90% | 80% | 80% | 90% | Pre-emergence activity against VIOTR (Viola tricolor (VIOTR); 1280 g/ha): 90%; Pre-emergence activity against LOLRI (Lolium rigidum (LOLRI)): 80%; Pre-emergence activity against DIGSA [7]: 90%; post-emergence activity against BRSNW (Brassica napus (BRSNW)): 0%
2 | Cc1cccc(CN2C(=O)CCC2CC(=O)O)c1C (racemic) [Example I-194] |  |  |  |  |  |  |  |  |  |  |  |  | Post-emergence activity against DIGSA [14]: 90%
3 | Cc1ccc(SCCOC(=O)CC2CCC(=O)N2Cc2cccc(F)c2F)cc1 (racemic) [Example I-041] |  |  |  |  |  |  |  |  |  |  |  |  | Pre-emergence activity against AVEFA (Avena fatua (AVEFA) [2]; 320 g/ha): 90%; Pre-emergence activity against ALOMY ([3]; 320 g/ha): 80%; Pre-emergence activity against VERPE (Veronica persica (VERPE); 320 g/ha): 90%; Post-emergence activity against ECHCG ([8]; 320 g/ha): 90%; Post-emergence activity against ALOMY ([10]; 320 g/ha): 80%; Post-emergence activity against POLCO ([11]; 320 g/ha): 80%; Post-emergence activity against LOLMU ([13]; 320 g/ha): 80%
4 | COC(=O)C(C(=O)CC1CCC(=O)N1Cc1cccc(F)c1F)C(=O)OC (racemic) [Example I-176] | 90% | 100% | 90% | 80% |  | 90% | 90% | 80% | 90% | 90% | 80% | 80% | 
5 | O=C(CC1CCC(=O)N1Cc1cccc(F)c1F)OC1CCCC1 (racemic) [Example I-017] | 90% | 100% | 90% | 80% | 90% | 80% | 90% | 90% | 80% | 80% |  |  | 
6 | C#CCOC(=O)CC1CCC(=O)N1Cc1cccc(F)c1F (racemic) [Example I-023] | 80% | 100% | 90% |  | 90% | 80% | 90% | 80% | 80% |  | 80% | 80% | Pre-emergence activity against VERPE (Veronica persica (VERPE); 1280 g/ha): 80%; Pre-emergence activity against CYPES [15]: 80%
7 | O=C(CC1CCC(=O)N1Cc1cccc(F)c1F)NN1CCCC1 (stereo not drawn) [Example I-200, 2-[1-[(2,3-difluorophenyl)methyl]-5-oxo-pyrrolidin-2-yl]-N-(pyrrolidin-1-yl)acetamide] |  |  |  |  |  |  |  |  |  |  |  |  | Pre-emergence activity against VIOTR (Viola tricolor (VIOTR); 320 g/ha): 80%; Pre-emergence activity against AVEFA (Avena fatua (AVEFA) [2]; 320 g/ha): 100%; Pre-emergence activity against POLCO ([4]; 320 g/ha): 90%; Pre-emergence activity against DIGSA [7]: 80%; Post-emergence activity against AVEFA (Avena fatua (AVEFA) [9]; 320 g/ha): 80%; Post-emergence activity against ALOMY ([10]; 320 g/ha): 80%; Post-emergence activity against DIGSA [14]: 80%
8 | O=C(CC1CCC(=O)N1Cc1cccc(F)c1F)N1CCCC1 (racemic) [Example I-071] |  | 90% | 80% | 80% |  |  |  | 80% |  | 80% |  |  | 
